Tested on: Corticium sasakii
Assay: Activity against sheath blight on rice caused by Corticium sasakii (protective spray, rice plants cultivar Tai-Nong 67)
Assay type: in vivo
Details: individual active compound, evaluated after 11 days, untreated control 85% infection
Method: The active compounds, separately or jointly, were prepared as a stock solution comprising 0.25% by weight of active compound in acetone or DMSO. 1% by weight of the emulsifier Uniperol® EL (wetting agent having emulsifying and dispersing action based on ethoxylated alkylphenols) was added to this solution, and the mixture was appropriately diluted with water to the desired concentration.
Pots of rice plants of the cultivar “Tai-Nong 67” were sprayed to runoff point with an aqueous suspension having the concentration of active compound stated below. The next day, oat grains infected with Corticium sasakii were planted in the pots (in each case 5 grains per pot). The plants were then placed in a chamber at 26° C. and maximum atmospheric humidity. After 11 days, the sheath blight on the untreated but infected control plants had developed to such an extent that the infection could be determined visually in %.
Evaluation is carried out by determining the infected leaf areas in percent. These percentages were converted into efficacies.
The efficacy (E) is calculated as follows using Abbot's formula: E=(1−α/β)·100 • α corresponds to the fungal infection of the treated plants in % and • β corresponds to the fungal infection of the untreated (control) plants in %
An efficacy of 0 means that the infection level of the treated plants corresponds to that of the untreated control plants; an efficacy of 100 means that the treated plants are not infected.
The expected efficacies of the mixtures of active compounds are determined using Colby's formula [R. S. Colby, Weeds, 15, 20-22 (1967)] and are compared with the observed efficacies.
Colby's formula: E=x+y−x·y/100 • expected efficacy, expressed in % of the untreated control, when using the mixture of the active compounds A and B at the concentrations a and b • x efficacy, expressed in % of the untreated control, when using the active compound A at the concentration a
y efficacy, expressed in % of the untreated control, when using the active compound B at the concentration b

In the case of CC1CCN(c2c(-c3c(F)cc(F)cc3F)c(Cl)nc3ncnn23)CC1 [I, 5-chloro-7-(4-methylpiperidin-1-yl)-6-(2,4,6-trifluorophenyl)-[1,2,4]triazolo[1,5-a]pyrimidine], the “Efficacy in % of the untreated control” value (4 ppm in the spray liquor) is reported as 30% and the “Efficacy in % of the untreated control” value (16 ppm in the spray liquor) is reported as 65%.

With CN(C)S(=O)(=O)N(SC(F)(Cl)Cl)c1ccccc1 [II (dichlofluanid), N-dichlorofluoromethylthio-N′,N′-dimethyl-N-phenylsulfonamide] the “Efficacy in % of the untreated control” value (4 ppm in the spray liquor) was 0% and the “Efficacy in % of the untreated control” value (16 ppm in the spray liquor) was 0%.
